According to patent publication EP4470536A1, “COMPOUND FOR USE IN TREATING FIBRODYSPLASIA OSSIFICANS PROGRESSIVA (FOP)” (Queen's University At Kingston, priority 2023, dated 2024):

Legend:
[1] = Mapping a therapeutic window (ED50 versus MTD); assay type: in vivo
Description: For both palovarotene and compound 1 efficacy and toxicity were correlated to the pharmacokinetic parameters AUC (area under the curve), Cmax (maximum concentration detected following compound administration), and duration above EC50/IC50.This illustrated that efficacy was best predicted by duration above the EC50/IC50 (effective concentration for 50% response (in the case of palovarotene), or for 50% inhibition (in the case of compound 1)), whereas toxicity was best predicted by Cmax. […] For palovarotene, efficacy data from Example 7 and toxicity data from Example 8 above were compiled with mined data from the following publications: • Lindborg et al (2018). "Cartilage-derived retinoic acid-sensitive protein (CD-RAP): A stage-specific biomarker of heterotopic endochondral ossification (HEO) in fibrodysplasia ossificans progressiva (FOP)." Bone 109: 153-157. • Chakkalakal, S. A., et al. (2016). "Palovarotene Inhibits Heterotopic Ossification and Maintains Limb Mobility and Growth in Mice With the Human ACVR1(R206H) Fibrodysplasia Ossificans Progressiva (FOP) Mutation." J Bone Miner Res 31(9): 1666-1675. • Inubushi, T., et al. (2018). "Palovarotene Inhibits Osteochondroma Formation in a Mouse Model of Multiple Hereditary Exostoses." J Bone Miner Res 33(4): 658-666. • Lees-Shepard, J. B., et al. (2018). […] "Potent inhibition of heterotopic ossification by nuclear retinoic acid receptor-gamma agonists." Nat Med 17(4): 454-460.

ectopic bone formation = experiment: Genetic mouse model of FOP, pinch injury-induced ectopic bone formation, micro-CT; assay type: in vivo, Acvr1^(cR206H/+);Pdgfra-Cre+ mice; details: for Mean ectopic bone volume D14 (mm^3) / Mean ectopic bone volume D14 [percent change from vehicle]: day 14; for Mean ectopic bone volume D22 (mm^3) / Mean ectopic bone volume D22 [percent change from vehicle]: day 22
Description: Acvr1^(cR206H/+) mice were obtained from the International Fibrodysplasia Ossificans Progressiva Association (IFOPA, North Kansas City, MO, USA). These animals harbour a Cre recombinase-inducible Acvr1 transgenic allele, which causes a switch from wild-type mouse ACVR1 protein expression to that of a chimeric mouse/human protein containing the R206H mutation seen in >95% of FOP patients. These animals were intercrossed with Pdgfra-Cre expressing mice (C57BL/6-Tg(PDGFRA-cre)1Clc/J mice, available through The Jackson Laboratory, Bar Harbor, ME, USA) which activates Cre recombination in fibro-adipogenic precursors, currently believed to be the cells of origin for FOP (Lees-Shepard, J.B., et al (2018) Nat Commun 9, 471.). Resulting study animals (ACVR1^(R206H/+);Pdgfra-Cre+) are susceptible to injury-induced ectopic bone formation. These animals were subjected to a bilateral gastrocnemius pinch procedure under anaesthesia, whereby a Halsted-mosquito hemostat (product#13008-12, Fine Science Tools Inc., North Vancouver, BC, Canada) is used to compress the gastrocnemius muscle, at its widest part, to approximately 2mm for 5s, and then released. This injury elicits robust ectopic bone formation within 10-14 days (for description of procedure see, Lyu, H., et al. (2021). Biomedicines 9(6).). […] Micro-CT imaging was performed on days 14 (under anaesthesia) and at study termination (day 22), as outlined above in Example 7. Sites of ectopic bone formation in the area of the injury were volumetrically quantified using Class stratification in Imalytics Preclinical software (version 3.0.2.3, Gremse-IT GmbH, Aachen, Germany) from DICOM renderings. Using this model, the utility of compound 1 in inhibiting bone formation in a genetic mouse model of FOP was illustrated (see Figure 11 and Table 3 below). Table 3. Effect of different doses of compound 1 on mean ectopic bone volume at 14 and 22 days following initiation of treatment

CYP26B1 = biological target: T1, CYP26B1 (Homo sapiens, UniProt Q9NR63); experiment: U2OS cell-based inhibitor assay (endogenous CYP26B1); parameters: This assay used a human cell type endogenously expressing the CYP26B1 enzyme; endogenous in cells; host or cells: U2OS, pre-treated with 1 µM RA for 24 hours; details: U2OS cells pre-treated with 1 µM RA for 24 hours; Figure 4
T1 sequence (Q9NR63 1-512): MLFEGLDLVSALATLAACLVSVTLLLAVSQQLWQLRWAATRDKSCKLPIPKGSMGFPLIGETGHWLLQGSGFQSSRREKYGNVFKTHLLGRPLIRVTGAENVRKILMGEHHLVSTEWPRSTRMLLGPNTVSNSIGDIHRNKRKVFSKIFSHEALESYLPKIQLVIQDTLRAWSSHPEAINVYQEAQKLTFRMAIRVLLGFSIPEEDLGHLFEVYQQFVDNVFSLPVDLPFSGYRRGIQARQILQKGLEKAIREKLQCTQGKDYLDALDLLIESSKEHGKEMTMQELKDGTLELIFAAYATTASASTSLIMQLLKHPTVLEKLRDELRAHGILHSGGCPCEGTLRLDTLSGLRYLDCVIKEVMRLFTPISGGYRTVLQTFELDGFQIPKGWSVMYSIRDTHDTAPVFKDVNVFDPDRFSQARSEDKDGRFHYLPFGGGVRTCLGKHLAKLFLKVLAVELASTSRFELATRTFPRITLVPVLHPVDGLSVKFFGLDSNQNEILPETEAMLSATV
Method: This assay used a human cell type endogenously expressing the CYP26B1 enzyme to test the ability of a compound to block RA metabolism. U2OS cells were grown in McCoy's 5A medium containing 10% fetal bovine serum (FBS) and 1X antibiotic/antimycotic cocktail. Cells grown in a T-175 culture flask at […] were treated with 1 µM RA for 24 hours to induce the expression of the CYP26B1 gene prior to the assay. Following this treatment period, cells were collected by trypsinization, washed twice in PBS, and resuspended in 7 ml of fresh culture medium. These cells were then re-plated in 48-well plates, and the assay was carried out as described for the HeLa-cell based assay.

SMILES: CC(C)(C)c1cccc(-c2cc3cc(/C=C/C(=O)O)ccc3[nH]2)c1 [Compound 1, (E)-3-(2-(3-(tert-butyl)phenyl)-1H-indol-5-yl)acrylic acid]
- ED50 ([1]; Mus musculus, BID, effective dose for 50% reduction in ectopic bone): 4 mg/kg
- MTD at 4 weeks ([1]; both sexes, FVB, mouse, in vivo): 10 mg/kg
- Mean ectopic bone volume D14 (mm^3) (ectopic bone formation; 2mg/kg BID): 2.92 ± 3.76 mm^3
- Mean ectopic bone volume D14 [percent change from vehicle] (ectopic bone formation; 2mg/kg BID): -76.9%
- Mean ectopic bone volume D22 (mm^3) (ectopic bone formation; 2mg/kg BID): 2.62 ± 4.36 mm^3
- Mean ectopic bone volume D22 [percent change from vehicle] (ectopic bone formation; 2mg/kg BID): -77.9%
- Mean ectopic bone volume D14 (mm^3) (ectopic bone formation; 4mg/kg BID): 0.20 ± 0.47 mm^3
- Mean ectopic bone volume D14 [percent change from vehicle] (ectopic bone formation; 4mg/kg BID): -98.5%
- Mean ectopic bone volume D22 (mm^3) (ectopic bone formation; 4mg/kg BID): 0.00 ± 0.00 mm^3
- Mean ectopic bone volume D22 [percent change from vehicle] (ectopic bone formation; 4mg/kg BID): -100%
- Mean ectopic bone volume D14 (mm^3) (ectopic bone formation; 7.5mg/kg BID): 0.31 ± 0.45 mm^3
- Mean ectopic bone volume D14 [percent change from vehicle] (ectopic bone formation; 7.5mg/kg BID): -97.5%
- Mean ectopic bone volume D22 (mm^3) (ectopic bone formation; 7.5mg/kg BID): 0.07 ± 0.18 mm^3
- Mean ectopic bone volume D22 [percent change from vehicle] (ectopic bone formation; 7.5mg/kg BID): -99.4%
- Mean ectopic bone volume D14 (mm^3) (ectopic bone formation; 10mg/kg BID): 1.28 ± 2.23 mm^3
- Mean ectopic bone volume D14 [percent change from vehicle] (ectopic bone formation; 10mg/kg BID): -89.9%
- Mean ectopic bone volume D22 (mm^3) (ectopic bone formation; 10mg/kg BID): 1.40 ± 2.65 mm^3
- Mean ectopic bone volume D22 [percent change from vehicle] (ectopic bone formation; 10mg/kg BID): -88.2%
- IC50 (CYP26B1): 1.9 nM
